Test results: patent publication US20100087457A1, “DOSAGES AND METHODS FOR THE TREATMENT OF CANCER” (Myriad Pharmaceuticals, Inc, priority 2007, published 2010)
Structures can show the parent of a compound that is named as a salt. Where two headings read alike, the source gives them in different places.

Tests used:
[1] = Phase I clinical trial: plasma concentrations after weekly intravenous infusion (pharmacokinetics); format: in vivo, human; settings: human, plasma, iv; for concentration at 1 h / concentration at 1 h after end of infusion: 1 hr after infusion; for concentration at 24 h after end of infusion / concentration at 24 h: 24 hr after infusion; for concentration at 12 h after end of infusion / concentration at 12 h: 12 hr after infusion; for concentration at 2 h / concentration at 2 h after end of infusion: 2 hr after infusion; for concentration at 4 h / concentration at 4 h after end of infusion: 4 hr after infusion; for Cmax: intravenous administration of a single dose, read-out: estimated Cmax
Procedure: (§1) An open-label, dose-escalating, multiple-dose study to define the safety, tolerability and pharmacokinetics of weekly intravenous administration of (4-Methoxy-phenyl)-methyl-(2-methyl-quinazolin-4-yl)-amine hydrochloride was performed. A dosing schedule (each 4 week cycle) was performed for (4-Methoxy-phenyl)-methyl-(2-methyl-quinazolin-4-yl)-amine hydrochloride weekly for 3 weeks with no infusion on the fourth week of each cycle. Subjects with refractory solid tumors were enrolled in cohorts of 3. During Cycle 1, subjects were hospitalized during each infusion of (4-Methoxy-phenyl)-methyl-(2-methyl-quinazolin-4-yl)-amine hydrochloride and remained for observation and safety evaluation for approximately 24 hours following the end of the infusion. All subjects had continuous telemetry for 2 hours prior to infusion, for 1-2 hour infusion and for 3 hours after the end of the infusion. Any clinically significant electrocardiographic (ECG) wave form abnormality was recorded and prolongation of the monitoring period extended at the discretion of the principal investigator.
Blood samples were collected prior to dosing, at the end of the infusion, and 1, 2, 4, 6, 12, and 24 hours after the infusion. This sampling schedule occurred on Days 1 and 15 with administration of the first and third doses. Samples were collected into tubes containing EDTA and stored on ice until centrifuged. The plasma was frozen at approximately −20° C. in labeled, plastic tubes, or vials, and tightly capped. The samples were shipped to Myriad Pharmaceuticals, Inc. for analysis of (4-Methoxy-phenyl)-methyl-(2-methyl-quinazolin-4-yl)-amine hydrochloride. Pharmacokinetic analysis was conducted using WinNonlin 4.0®.

[2] = Phase I clinical trial: safety and tolerability in subjects with refractory solid tumors; format: in vivo, human
Procedure: as §1
Electrocardiograms were obtained prior to starting the infusion and within 30 minutes of the end of infusion for each infusion of the first cycle. Electrocardiograms on Day 1 were obtained in triplicate 5 minutes apart.
Neurocognitive assessments were made by administration of the Mini-Mental State Examination (MMSE), the Hopkins Verbal Learning and timed Grooved Pegboard tests before administration of the intravenous infusion and approximately 24 hours of the infusion at each weekly administration of the first cycle.
On days 1, 8, and 15 of each cycle, vital signs were obtained prior to the first dose, at 15, 30, and 60 minutes after the initiation of the infusion, and at 0.5, 1, 1.5, 2, and 4 hours after the end of the intravenous infusion. Vital signs at all time points beyond the start of the intravenous infusion included heart rate, blood pressure and respirations. Temperature was measured at the end of the infusion and 4 hours later.
Individual subjects were allowed to continue on repeated weekly×3 administrations every 28 days with no dose increase provided there was no unacceptable toxicity or disease progression.
Tumor response was evaluated by response evaluation criteria in solid tumors (RECIST) criteria. To prevent sever hypersensitivity reactions due to Cremophor® EL, subjects were premedicated with oral dexamethasone (20 mg) administered approximately 12 and 6 hours before the intravenous infusion with (4-Methoxy-phenyl)-methyl-(2-methyl-quinazolin-4-yl)-amine hydrochloride, diphenhydramine (50 mg) or its equivalent administered intravenously 30-60 minutes before (4-Methoxy-phenyl)-methyl-(2-methyl-quinazolin-4-yl)-amine hydrochloride, and cimetidine (300 mg) or ranitidine (50 mg) administered intravenously 30-60 minutes before (4-Methoxy-phenyl)-methyl-(2-methyl-quinazolin-4-yl)-amine hydrochloride.

[3] = 1 mg/m^2, Day 1, 1.0 mg/m^2 i.v., infusion 1 hr, LLOQ 1 ng/mL
[4] = 1 mg/m^2, Day 15, 1.0 mg/m^2 i.v., infusion 1 hr, LLOQ 1 ng/mL
[5] = 1.5 mg/m^2, Day 15, 1.5 mg/m^2 i.v., infusion 1 hr, LLOQ 1 ng/mL
[6] = 2.1 mg/m^2, Day 1, 2.1 mg/m^2 i.v., infusion 1 hr, LLOQ 1 ng/mL
[7] = 2.1 mg/m^2, Day 15, 2.1 mg/m^2 i.v., infusion 1 hr, LLOQ 1 ng/mL
[8] = 2.7 mg/m^2, Day 1, 2.7 mg/m^2 i.v., infusion 1 hr, LLOQ 1 ng/mL
[9] = 3.3 mg/m^2, Day 1, 3.3 mg/m^2 i.v., infusion 2 hr, LLOQ 1 ng/mL
[10] = 3.3 mg/m^2, Day 15, 3.3 mg/m^2 i.v., infusion 2 hr, LLOQ 1 ng/mL
[11] = 3.9 mg/m^2, Day 15, 3.9 mg/m^2 i.v., infusion 2 hr, LLOQ 1 ng/mL
[12] = 4.5 mg/m^2, Day 15, 4.5 mg/m^2 i.v., infusion 2 hr, LLOQ 1 ng/mL

COc1ccc(N(C)c2nc(C)nc3ccccc23)cc1 [(4-Methoxy-phenyl)-methyl-(2-methyl-quinazolin-4-yl)-amine hydrochloride]
concentration at 1 h ([1]; 0.3 mg/m^2, Day 15, 0.3 mg/m^2 i.v., infusion 1 hr, LLOQ 1 ng/mL): 1.43 ng/mL
concentration at 24 h after end of infusion ([1]; 0.6 mg/m^2, Day 1, 0.6 mg/m^2 i.v., infusion 1 hr, LLOQ 1 ng/mL): 5.89 ng/mL
concentration at 12 h after end of infusion [1, 3]: 3.62 ng/mL
concentration at 24 h after end of infusion [1, 3]: 1.98 ng/mL
concentration at 1 h [1, 4]: 2.24 ng/mL
concentration at 2 h [1, 4]: 1.23 ng/mL
concentration at 4 h [1, 4]: 1.26 ng/mL
concentration at 12 h after end of infusion ([1]; 1.5 mg/m^2, Day 1, 1.5 mg/m^2 i.v., infusion 1 hr, LLOQ 1 ng/mL): 1.95 ng/mL
concentration at 4 h [1, 5]: 1.01 ng/mL
concentration at 6 h ([1]; 1.5 mg/m^2, Day 15, 1.5 mg/m^2 i.v., infusion 1 hr, 6 hr after infusion, LLOQ 1 ng/mL): 1.47 ng/mL
concentration at 12 h [1, 5]: 2.24 ng/mL
concentration at 24 h [1, 5]: 1.63 ng/mL
concentration at 1 h after end of infusion [1, 6]: 4.06 ng/mL
concentration at 2 h after end of infusion [1, 6]: 3.28 ng/mL
concentration at 4 h after end of infusion [1, 6]: 2.64 ng/mL
concentration at 6 h after end of infusion ([1]; 2.1 mg/m^2, Day 1, 2.1 mg/m^2 i.v., infusion 1 hr, 6 hr after infusion, LLOQ 1 ng/mL): 1.12 ng/mL
concentration at 12 h after end of infusion [1, 6]: 1.09 ng/mL
concentration at 1 h [1, 7]: 4.81 ng/mL
concentration at 4 h [1, 7]: 2.05 ng/mL
concentration at 12 h [1, 7]: 1.09 ng/mL
concentration at 24 h [1, 7]: 2.63 ng/mL
concentration at 1 h after end of infusion [1, 8]: 6.16 ng/mL
concentration at 2 h after end of infusion [1, 8]: 4.37 ng/mL
concentration at 4 h after end of infusion [1, 8]: 3.16 ng/mL
concentration at 6 h after end of infusion ([1]; 2.7 mg/m^2, Day 1, 2.7 mg/m^2 i.v., infusion 1 hr, 6 hr after infusion, LLOQ 1 ng/mL): 2.09 ng/mL
concentration at 12 h after end of infusion [1, 8]: 2.35 ng/mL
concentration at 24 h after end of infusion [1, 8]: 1.36 ng/mL
concentration at 12 h ([1]; 2.7 mg/m^2, Day 15, 2.7 mg/m^2 i.v., infusion 1 hr, LLOQ 1 ng/mL): 3.95 ng/mL
concentration at 2 h [1, 9]: 6.03 ng/mL
concentration at 24 h [1, 9]: 1.73 ng/mL
concentration at 1 h ([1]; 3.3 mg/m^2, Day 15, 3.3 mg/m^2 i.v., infusion 1 hr, LLOQ 1 ng/mL): 14.7 ng/mL
concentration at 1 h [1, 10]: 6.84 ng/mL
concentration at 2 h [1, 10]: 3.8 ng/mL
concentration at 24 h [1, 10]: 1.48 ng/mL
concentration at 1 h [1, 11]: 10.6 ng/mL
concentration at 2 h [1, 11]: 10.4 ng/mL
concentration at 4 h [1, 11]: 8.24 ng/mL
concentration at 24 h ([1]; 4.5 mg/m^2, Day 1, 4.5 mg/m^2 i.v., infusion 2 hr, LLOQ 1 ng/mL): 1.17 ng/mL
concentration at 1 h [1, 12]: 13.6 ng/mL
concentration at 2 h [1, 12]: 13.1 ng/mL
Cmax ([1]; Day 1): ~14 ng/mL
Cmax ([1]; Day 15): ~26 ng/mL
bradycardia ([2]; Phase 1 Trial): occasional episodes of bradycardia
dose limiting toxicity ([2]; Phase 1 Trial): vascular in nature, manifested by an acute coronary syndrome
intratumor bleeding ([2]; Phase 1 Trial): incidences of intratumor bleeding
systolic blood pressure ([2]; Phase 1 Trial): dose-related increase
effects on cardiac conduction (PR, QRS or QTc) ([2]; Phase 1 Trial, ECG): no significant effects
cytotoxity peripherally ([2]; Phase 1 Trial, at the administered doses): no evidence of cytotoxity peripherally
safety and tolerability ([2]; Phase 1 Trial, weekly intravenous administration): safe and tolerable
dose ranges found to be safely tolerated ([2]; human patients): less than 3.3 mg/m^2
